Measurements taken from patent US20050142531A1, “Peptidically buffered formulations for electrotransport applications and methods of making” (priority 2003, published 2005).
Square brackets hold non-standard residues; d marks the D form. Peptide text beside a SMILES is read from it. Cit = NC(=O)NCCC[C@H](N)C(=O)O; Orn = NCCC[C@H](N)C(=O)O

Assay: pKa, pI and % salt of peptidic buffers
Type: physicochemical
Settings: for pI: Table 2; for % salt: fraction ionized with net charge in aqueous solution at pH equal to the pI

Structure (SMILES) | pka A (acidic pKa) (Table 2, first acidic pKa) | pka B (basic pKa) (Table 2, first basic pKa) | pka B (basic pKa) (Table 2, second basic pKa) | pka A (acidic pKa) (Table 2, second acidic pKa) | pka B (basic pKa) (Table 2, third basic pKa) | pI | % salt
N[C@@H](Cc1c[nH]cn1)C(=O)N1CCC[C@H]1C(=O)O [His-Pro] | 2.62 | 6.10 | 7.80 |  |  |  | 
CC[C@H](C)[C@H](NC(=O)[C@@H](N)Cc1c[nH]cn1)C(=O)O [His-Isoleucine] (H-His-Ile-OH; N-terminus and C-terminus assumed) | 3.13 | 6.10 | 7.80 |  |  |  | 
N[C@@H](CCC(=O)O)C(=O)N[C@@H](Cc1c[nH]cn1)C(=O)O [Glu-His] (H-Glu-His-OH; N-terminus and C-terminus assumed) | 2.45 | 6.81 | 8.20 | 3.45 |  |  | 
O=C(O)[C@H](Cc1c[nH]cn1)NC(=O)[C@@H]1CCCN1 [Pro-His] | 2.42 | 6.71 | 9.10 |  |  |  | 
N=C(N)NCCC[C@H](N)C(=O)N[C@@H](CCC(=O)O)C(=O)O [Arg-Glu] (H-Arg-Glu-OH; N-terminus and C-terminus assumed) | 2.74 | 7.92 | 12.50 | 4.18 |  |  | 
NC(=O)C[C@H](NC(=O)[C@@H](N)Cc1c[nH]cn1)C(=O)O [His-Asn] (H-His-Asn-OH; N-terminus and C-terminus assumed) | 2.62 | 6.10 | 7.80 |  |  |  | 
NCC(=O)N[C@@H](CC(=O)O)C(=O)O [Gly-Asp] (H-Gly-Asp-OH; N-terminus and C-terminus assumed) | 2.81 | 8.60 |  | 4.45 |  |  | 
NC(=O)CC[C@H](NC(=O)[C@@H](N)Cc1c[nH]cn1)C(=O)O [His-Gln] (H-His-Gln-OH; N-terminus and C-terminus assumed) | 2.93 | 6.10 | 7.80 |  |  |  | 
N[C@@H](Cc1c[nH]cn1)C(=O)N[C@@H](Cc1ccc(O)cc1)C(=O)O [His-Tyr] (H-His-Tyr-OH; N-terminus and C-terminus assumed) | 2.13 | 6.10 | 7.80 | 9.97 |  |  | 
N=C(N)NCCC[C@H](NC(=O)[C@@H](N)CCC(=O)O)C(=O)O [Glu-Arg] (H-Glu-Arg-OH; N-terminus and C-terminus assumed) | 2.66 | 7.94 | 12.50 | 4.01 |  |  | 
C[C@@H](O)[C@H](NC(=O)[C@@H](N)Cc1c[nH]cn1)C(=O)O [His-Thr] (H-His-Thr-OH; N-terminus and C-terminus assumed) | 2.98 | 6.10 | 7.80 |  |  |  | 
NCCC[C@H](NC(=O)[C@@H](N)Cc1c[nH]cn1)C(=O)O [His-Ornithine] (H-His-[Orn]-OH; N-terminus and C-terminus assumed) | 2.82 | 6.10 | 7.80 |  | 11.00 |  | 
N[C@@H](Cc1c[nH]cn1)C(=O)N1CC(O)C[C@H]1C(=O)O (stereo partly shown) [His-Hydroxyproline] | 2.42 | 6.10 | 7.80 |  |  |  | 
N[C@@H](Cc1ccccc1)C(=O)N[C@@H](Cc1c[nH]cn1)C(=O)O [Phe-His] (H-Phe-His-OH; N-terminus and C-terminus assumed) | 2.42 | 6.71 | 7.70 |  |  |  | 
N[C@@H](Cc1c[nH]cn1)C(=O)N[C@@H](CO)C(=O)O [His-Ser] (H-His-Ser-OH; N-terminus and C-terminus assumed) | 2.65 | 6.10 | 7.80 |  |  |  | 
NCCCC[C@H](NC(=O)[C@@H](N)Cc1c[nH]cn1)C(=O)O [His-Lys] (H-His-Lys-OH; N-terminus and C-terminus assumed) | 3.05 | 6.10 | 7.80 |  | 11.00 |  | 
NC(=O)NCCC[C@H](NC(=O)[C@@H](N)Cc1c[nH]cn1)C(=O)O [His-Citrulline] (H-His-[Cit]-OH; N-terminus and C-terminus assumed) | 3.05 | 6.10 | 7.80 |  |  |  | 
NCCC(=O)N[C@@H](Cc1cnc[nH]1)C(=O)O [Carnosine] | 2.64 | 6.83 | 9.51 |  |  | 8.17 | 8%
NCC(O)CC[C@H](NC(=O)[C@@H](N)Cc1c[nH]cn1)C(=O)O (stereo partly shown) [His-Hydroxylysine] | 3.05 | 6.10 | 7.80 |  | 9.70 |  | 
CSCC[C@H](N)C(=O)N[C@@H](Cc1c[nH]cn1)C(=O)O [Met-His] (H-Met-His-OH; N-terminus and C-terminus assumed) | 2.42 | 6.71 | 7.97 |  |  |  | 
N[C@@H](CO)C(=O)N[C@@H](Cc1c[nH]cn1)C(=O)O [Ser-His] (H-Ser-His-OH; N-terminus and C-terminus assumed) | 2.42 | 6.71 | 7.70 |  |  |  | 
C[C@@H](O)[C@H](N)C(=O)N[C@@H](Cc1c[nH]cn1)C(=O)O [Thr-His] (H-Thr-His-OH; N-terminus and C-terminus assumed) | 2.42 | 6.71 | 7.60 |  |  |  | 
NCCCC[C@H](N)C(=O)N[C@@H](Cc1c[nH]cn1)C(=O)O [Lys-His] | 2.42 | 6.71 | 8.00 |  | 11.00 |  | 
NCCC(=O)N[C@@H](Cc1cnc[nH]1)C(=O)O [Beta-Alanylhistidine] | 2.60 | 6.70 | 8.70 |  |  | 7.70 | 16%
NC(=O)CC[C@H](N)C(=O)N[C@@H](Cc1c[nH]cn1)C(=O)O [GIn-His] (H-Gln-His-OH; N-terminus and C-terminus assumed) | 2.42 | 6.71 | 7.70 |  |  |  | 
N[C@@H](Cc1c[nH]cn1)C(=O)N[C@@H](Cc1c[nH]cn1)C(=O)O [His-His] | 2.25 | 5.40 | 6.80 |  | 7.95 |  | 
CC[C@H](C)[C@H](N)C(=O)N[C@@H](Cc1c[nH]cn1)C(=O)O [Isoleucine-His] (H-Ile-His-OH; N-terminus and C-terminus assumed) | 2.42 | 6.71 | 8.20 |  |  |  | 
CC(C)[C@H](NC(=O)[C@@H](N)Cc1c[nH]cn1)C(=O)O [His-Val] (H-His-Val-OH; N-terminus and C-terminus assumed) | 3.18 | 6.10 | 7.80 |  |  |  | 
